Calls of active or inactive are those of the source. The calls are words filed in the database; no cut-off is given here. Numbered stars: 1 amine (or outer) side, 2 acyl side, 3 side chain; on linkers, the order of the positions; unused ones are H or OH. Bridge positions count the residues as written; N and C are the ends. Square brackets hold non-standard residues; d marks the D form. Peptide text beside a SMILES is read from it. X2 = C[C@@](CCCCC=[*:3])(N[*:1])C(=O)[*:2]; R8 = C=CCCCCCC[C@@](C)(N)C(=O)O; S5 = C=CCCC[C@](C)(N)C(=O)O; Pra = C#CC[C@H](N)C(=O)O
Assays:
HeLa [1] = experiment: (§1) Inhibition of recombinant APC/C/cdc20 (unknown origin) in metaphase-synchronized human HeLa cells co-expressing GST-tagged UBA1/UBE2C/methylated ubiquitin using RD680-labeled securin as substrate at 100 uM measured after 45 mins in presence of ATP by immuno-precipitation method; format: cell-based
TERT-RPE1 = experiment: Effect on time length of mitosis in human RPE-1 cells at 50 uM measured for 10 to 24 hrs by bright field microscopy; format: functional, cell-based; settings: time 10-24 hrs
[2] = biological target: Anaphase-promoting complex subunit 11 (Homo sapiens) (UniProt Q9NYG5); experiment: Binding affinity to APC11 (unknown origin) assessed as binding free energy
HeLa [3] = experiment: Inhibition of recombinant APC/C/cdc20 (unknown origin) in metaphase-synchronized human HeLa cells co-expressing GST-tagged UBA1/UBE2D1/methylated ubiquitin using RD680-labeled securin as substrate at 100 uM measured after 45 mins in presence of ATP by immuno-precipitation method; format: cell-based
[4] = Drug localization in human HeLa cells assessed as punctate pattern formation at 50 uM incubated for 10 hrs by AF488 dye based analysis; format: ADME, cell-based
HeLa [5] = experiment: as §1, with “substrate assessed as maximum inhibition” for “substrate”, “15” for “45”; format: cell-based
[6] = biological target: E3 ubiquitin-protein ligase CBL (Homo sapiens) (UniProt P22681); experiment: Binding affinity to c-CBL in asynchronously growing human HeLa cells incubated for 30 mins by pull down assay; format: cell-based
[7] = biological target: Anaphase-promoting complex subunit 11 (Homo sapiens) (UniProt Q9NYG5); experiment: Binding affinity to APC11 in asynchronously growing human HeLa cells incubated for 30 mins by pull down assay; format: cell-based
[8] = biological target: E3 ubiquitin-protein ligase Mdm2 (Homo sapiens) (UniProt Q00987); experiment: Binding affinity to MDM2 in asynchronously growing human HeLa cells incubated for 30 mins by pull down assay; format: cell-based
Sequence of E3 ubiquitin-protein ligase Mdm2 (Homo sapiens) (Q00987 whole entry, looked up): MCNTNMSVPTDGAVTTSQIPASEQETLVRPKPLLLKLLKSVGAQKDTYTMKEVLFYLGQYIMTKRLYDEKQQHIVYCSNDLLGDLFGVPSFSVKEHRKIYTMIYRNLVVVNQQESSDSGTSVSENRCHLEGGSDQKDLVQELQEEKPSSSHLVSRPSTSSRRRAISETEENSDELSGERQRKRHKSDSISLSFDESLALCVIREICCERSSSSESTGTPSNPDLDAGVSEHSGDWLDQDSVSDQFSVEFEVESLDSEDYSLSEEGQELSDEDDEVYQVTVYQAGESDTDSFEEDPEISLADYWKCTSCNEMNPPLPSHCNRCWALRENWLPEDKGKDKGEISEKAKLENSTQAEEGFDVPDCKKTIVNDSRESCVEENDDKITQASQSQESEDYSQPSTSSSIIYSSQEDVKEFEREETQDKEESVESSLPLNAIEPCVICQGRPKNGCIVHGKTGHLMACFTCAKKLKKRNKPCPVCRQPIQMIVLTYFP

Sequence of Anaphase-promoting complex subunit 11 (Homo sapiens) (Q9NYG5 whole entry, one chain of several): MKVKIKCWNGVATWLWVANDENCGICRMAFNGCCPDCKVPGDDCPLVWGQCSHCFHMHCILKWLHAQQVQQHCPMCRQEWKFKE

CC[C@H](C)[C@@H]1NC(=O)[C@H](CCC(=O)O)NC(=O)[C@H](CC(C)C)NC(=O)[C@@H](CCCCN)NC(=O)[C@](C)(NC(=O)[C@H](Cc2c[nH]c3ccccc23)NC(=O)[C@H](Cc2c[nH]c3ccccc23)NC(=O)[C@H](CCC(=O)O)NC(C)=O)CCCCCC/C=C\CCC[C@@](C)(C(=O)N[C@@H](CCCNC(=N)N)C(=O)N[C@@H](CCCNC(=N)N)C(=O)N[C@@H](C)C(N)=O)NC(=O)[C@H](CCCNC(=N)N)NC(=O)[C@H](CCC(N)=O)NC1=O
inhibition (HeLa [1]): Active; Compound Exerted Better Inhibitory Effect Than Tame | Activity (TERT-RPE1): No effect

CC(=O)N[C@H]1CSSC[C@@H](C(=O)N[C@@H](CCC(=O)O)C(=O)N[C@@H](Cc2c[nH]c3ccccc23)C(=O)N[C@@H](CCCNC(=N)N)C(=O)N[C@@H](Cc2ccc(O)cc2)C(N)=O)NC(=O)[C@H](Cc2cnc[nH]2)NC(=O)[C@H](Cc2c[nH]c3ccccc23)NC(=O)[C@H](CCC(N)=O)NC(=O)[C@H](CO)NC(=O)[C@@H]2CCCN2C(=O)CNC(=O)[C@H](C)NC(=O)[C@H](CCC(=O)O)NC1=O (Ac-CEAGPSQWHCEWRY-NH2; disulfide 1-10)
deltaG [2]: -19.6 kcal/mol | inhibition (HeLa [3]): inactive

CC(=O)N[C@H]1CSSC[C@@H](C(=O)N[C@H](C(=O)N[C@@H](Cc2c[nH]c3ccccc23)C(=O)N[C@@H](CCCNC(=N)N)C(=O)N[C@@H](Cc2ccc(O)cc2)C(N)=O)[C@@H](C)O)NC(=O)[C@H](Cc2cnc[nH]2)NC(=O)[C@H](Cc2c[nH]c3ccccc23)NC(=O)[C@H](CCC(N)=O)NC(=O)[C@H](CO)NC(=O)[C@@H]2CCCN2C(=O)CNC(=O)[C@H](C)NC(=O)[C@H](CCC(=O)O)NC1=O (Ac-CEAGPSQWHCTWRY-NH2; disulfide 1-10)
deltaG [2]: -18.3 kcal/mol | inhibition (HeLa [3]): inactive

CC(=O)N[C@@H](CCC(=O)O)C(=O)N[C@@H](Cc1c[nH]c2ccccc12)C(=O)N[C@@H](Cc1c[nH]c2ccccc12)C(=O)N[C@]1(C)CCCCCC/C=C\CCC[C@@](C)(C(=O)N[C@@H](CCCNC(=N)N)C(=O)N[C@@H](CCCNC(=N)N)C(=O)N[C@@H](C)C(N)=O)NC(=O)[C@H](CCCNC(=N)N)NC(=O)[C@H](CCC(N)=O)NC(=O)[C@H](CC(C)C)NC(=O)[C@H](CCC(=O)O)NC(=O)[C@H](CC(C)C)NC(=O)[C@H](CCCCN)NC1=O (Ac-EWW[R8]KLELQR[S5]RRA-NH2; staple (Z) 4-11)
inhibition (HeLa [1]): Active; Compound Exerted Better Inhibitory Effect Than Tame

C#CC[C@H](NC(=O)[C@H](Cc1c[nH]c2ccccc12)NC(=O)[C@H](CCC(=O)O)NC(C)=O)C(=O)N[C@]1(C)CCCCCC/C=C\CCCC[C@@](C)(C(=O)N[C@@H](CCCNC(=N)N)C(=O)N[C@@H](CCCNC(=N)N)C(=O)N[C@@H](C)C(N)=O)NC(=O)[C@H](CCCNC(=N)N)NC(=O)[C@H](CCC(N)=O)NC(=O)[C@H]([C@@H](C)CC)NC(=O)[C@H](CCC(=O)O)NC(=O)[C@H](CCCCN)NC(=O)[C@H]([C@@H](C)CC)NC1=O (Ac-EW[Pra][R8]IKEIQR[X2]RRA-NH2; staple (Z) 4-11)
Drug uptake [4]: Active

CC(=O)N[C@@H](CCCNC(=N)N)C(=O)N[C@H]1CSSC[C@@H](C(=O)N[C@@H](CCCNC(=N)N)C(N)=O)NC(=O)[C@H](Cc2c[nH]c3ccccc23)NC(=O)[C@H](Cc2ccccc2)NC(=O)[C@H]([C@@H](C)O)NC(=O)[C@H](CCC(=O)O)NC(=O)[C@@H]2CCCN2C(=O)CNC(=O)[C@H](Cc2c[nH]c3ccccc23)NC(=O)[C@H](Cc2cnc[nH]2)NC1=O (Ac-RCHWGPETFWCR-NH2; disulfide 2-11)
deltaG [2]: -21.1 kcal/mol | inhibition (HeLa [1]): Active | inhibition (HeLa [3]): Active

CC(=O)N[C@@H](CCCNC(=N)N)C(=O)N[C@H]1CSSC[C@@H](C(=O)N[C@@H](CCCNC(=N)N)C(N)=O)NC(=O)[C@H](Cc2c[nH]c3ccccc23)NC(=O)[C@H](Cc2ccccc2)NC(=O)[C@H]([C@@H](C)O)NC(=O)[C@H](CCCNC(=N)N)NC(=O)[C@@H]2CCCN2C(=O)CNC(=O)[C@H](Cc2c[nH]c3ccccc23)NC(=O)[C@H](Cc2cnc[nH]2)NC1=O (Ac-RCHWGPRTFWCR-NH2; disulfide 2-11)
deltaG [2]: -25.6 kcal/mol | inhibition (HeLa [5]): Active | inhibition (HeLa [1]): Active | inhibition (HeLa [3]): Active

CC(=O)N[C@@H](CCCNC(=N)N)C(=O)N[C@H]1CSSC[C@@H](C(=O)N[C@@H](CCCNC(=N)N)C(N)=O)NC(=O)[C@H](Cc2c[nH]c3ccccc23)NC(=O)[C@H](Cc2ccccc2)NC(=O)[C@H]([C@@H](C)O)NC(=O)[C@H](CCC(=O)O)NC(=O)[C@@H]2CCCN2C(=O)CNC(=O)[C@H](Cc2c[nH]c3ccccc23)NC(=O)[C@H](CO)NC1=O (Ac-RCSWGPETFWCR-NH2; disulfide 2-11)
deltaG [2]: -24.2 kcal/mol | inhibition (HeLa [1]): Active | inhibition (HeLa [3]): Active

CC(=O)N[C@@H](CCCNC(=N)N)C(=O)N[C@@H](CCCNC(=N)N)C(=O)N[C@@H](CCCCN)C(=O)N[C@]1(C)CCCCCC/C=C\CCC[C@@](C)(C(=O)N[C@H](C(=O)N[C@@H](CCCNC(=N)N)C(=O)N[C@@H](Cc2ccc(O)cc2)C(N)=O)C(C)C)NC(=O)[C@H](CCCNC(=N)N)NC(=O)[C@H](C)NC(=O)[C@H](CCCNC(=N)N)NC(=O)[C@H](CCC(=O)O)NC(=O)[C@H](CCC(N)=O)NC(=O)[C@H](C)NC1=O (Ac-RRK[R8]AQERAR[S5]VRY-NH2; staple (Z) 4-11)
inhibition (HeLa [1]): inactive

CC[C@H](C)[C@@H]1NC(=O)[C@@](C)(NC(=O)[C@H](CCC(N)=O)NC(=O)[C@@H]2CCCN2C(=O)[C@H](Cc2c[nH]c3ccccc23)NC(=O)[C@H](CCCNC(=N)N)NC(C)=O)CCC/C=C/CCC[C@@](C)(C(=O)N[C@@H](CCC(N)=O)C(=O)N[C@H](C(=O)N[C@@H](CCCNC(=N)N)C(=O)N[C@@H](Cc2c[nH]c3ccccc23)C(=O)N[C@@H](Cc2c[nH]c3ccccc23)C(N)=O)C(C)C)NC(=O)[C@H](CC(=O)O)NC(=O)[C@H](CCCCN)NC1=O (Ac-RWPQ[S5]IKD[S5]QVRWW-NH2; staple (E) 5-9)
inhibition (HeLa [1]): Active; Compound Exerted Better Inhibitory Effect Than Tame | Activity (TERT-RPE1): No effect

CC(=O)N[C@@H](CCCNC(=N)N)C(=O)N[C@@H](Cc1c[nH]c2ccccc12)C(=O)N1CCC[C@H]1C(=O)N[C@@H](CCC(N)=O)C(=O)N[C@@]1(C)CCC/C=C/CCC[C@@](C)(C(=O)N[C@@H](CCC(N)=O)C(=O)N[C@H](C(=O)N[C@@H](CCCNC(=N)N)C(=O)N[C@@H](CCCNC(=N)N)C(=O)N[C@@H](Cc2c[nH]c3ccccc23)C(N)=O)C(C)C)NC(=O)[C@H](CC(=O)O)NC(=O)[C@H](Cc2c[nH]c3ccccc23)NC(=O)[C@H](CCCCN)NC1=O (Ac-RWPQ[S5]KWD[S5]QVRRW-NH2; staple (E) 5-9)
inhibition (HeLa [1]): Active; Compound Exerted Better Inhibitory Effect Than Tame | Activity (TERT-RPE1): No effect

C#CC[C@H](NC(=O)[C@@H]1CCCN1C(=O)[C@H](Cc1c[nH]c2ccccc12)NC(=O)[C@H](CCCNC(=N)N)NC(C)=O)C(=O)N[C@@]1(C)CCC/C=C/CCC[C@@](C)(C(=O)N[C@@H](CCC(N)=O)C(=O)N[C@H](C(=O)N[C@@H](CCCNC(=N)N)C(=O)N[C@@H](CCCNC(=N)N)C(=O)N[C@@H](Cc2c[nH]c3ccccc23)C(N)=O)C(C)C)NC(=O)[C@H](CC(=O)O)NC(=O)[C@H](Cc2c[nH]c3ccccc23)NC(=O)[C@H](CCCCN)NC1=O (Ac-RWP[Pra][S5]KWD[S5]QVRRW-NH2; staple (E) 5-9)
Activity [6]: inactive | Activity [7]: Active | Drug uptake [4]: Active | Activity (TERT-RPE1): No effect | Activity [8]: inactive

CC(=O)N[C@H](C(=O)N[C@@H](Cc1cnc[nH]1)C(=O)N[C@H]1CSSC[C@@H](C(=O)N[C@@H](CCC(N)=O)C(=O)N[C@@H](CCCNC(=N)N)C(=O)N[C@H](C(N)=O)C(C)C)NC(=O)[C@H](CC(N)=O)NC(=O)[C@H](Cc2c[nH]c3ccccc23)NC(=O)[C@H](CCCNC(=N)N)NC(=O)[C@H](Cc2c[nH]c3ccccc23)NC(=O)[C@H]([C@@H](C)O)NC(=O)[C@H](CCC(=O)O)NC(=O)[C@@H]2CCCN2C(=O)[C@H](CC(=O)O)NC(=O)[C@H](CC(=O)O)NC1=O)[C@@H](C)O (Ac-THCDDPETWRWNCQRV-NH2; disulfide 3-13)
deltaG [2]: -29.4 kcal/mol | inhibition (HeLa [5]): Active | inhibition (HeLa [1]): Active | inhibition (HeLa [3]): Active

C[C@@H](O)[C@H](NC(=O)[C@H](CC(=O)O)NC(=O)CN)C(=O)N[C@H]1CSSC[C@@H](C(=O)N[C@@H](CCC(N)=O)C(=O)N[C@@H](CCCNC(=N)N)C(=O)N[C@@H](Cc2cnc[nH]2)C(=O)O)NC(=O)[C@H](CC(N)=O)NC(=O)[C@H](Cc2c[nH]c3ccccc23)NC(=O)[C@H](CCCNC(=N)N)NC(=O)[C@H](Cc2c[nH]c3ccccc23)NC(=O)[C@H]([C@@H](C)O)NC(=O)[C@H](CCC(=O)O)NC(=O)[C@@H]2CCCN2C(=O)[C@H](CC(=O)O)NC(=O)[C@H](CC(=O)O)NC1=O (H-GDTCDDPETWRWNCQRH-OH; disulfide 4-14)
deltaG [2]: -29.4 kcal/mol | inhibition (HeLa [1]): Active | inhibition (HeLa [3]): Active

C[C@@H](O)[C@H](NC(=O)[C@H](CCCNC(=N)N)NC(=O)[C@@H]1CSSC[C@H](NC(=O)[C@H](CCCNC(=N)N)NC(=O)CN)C(=O)N[C@@H](Cc2cnc[nH]2)C(=O)N[C@@H](Cc2c[nH]c3ccccc23)C(=O)NCC(=O)N2CCC[C@H]2C(=O)N[C@@H](CCC(=O)O)C(=O)N[C@@H]([C@@H](C)O)C(=O)N[C@@H](Cc2ccccc2)C(=O)N[C@@H](Cc2c[nH]c3ccccc23)C(=O)N1)C(=O)O (H-GRCHWGPETFWCRT-OH; disulfide 3-12)
deltaG [2]: -19.4 kcal/mol | inhibition (HeLa [3]): Active

From ChEMBL document CHEMBL6109180, “De Novo-Designed APC/C Inhibitors Provide a Rationale for Targeting RING-Type E3 Ubiquitin Ligases” (J Med Chem, 2025)
